Columns and labels:
[1] = molecular target: Aldo-keto reductase family 1 member B1 (Rattus norvegicus, UniProt P07943); experiment: biochemical; format: tissue-based, Lens of camera-type eye;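 note: inhibition of aldose reductase enzyme activity, measured with DL-glyceraldehyde as the substrate; in other assays of this panel Not Active means under 50% inhibition at 10 µM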
[2] = molecular target: T1, Alpha-2A adrenergic receptor (Homo sapiens, UniProt P08913); format: cell membranes, Sf9, Membrane; conditions: for Ki: read-out: Ki; for all read-outs here: in other assays of this panel Not Active means under 50% inhibition at 10 µM
T1 sequence (P08913 whole entry): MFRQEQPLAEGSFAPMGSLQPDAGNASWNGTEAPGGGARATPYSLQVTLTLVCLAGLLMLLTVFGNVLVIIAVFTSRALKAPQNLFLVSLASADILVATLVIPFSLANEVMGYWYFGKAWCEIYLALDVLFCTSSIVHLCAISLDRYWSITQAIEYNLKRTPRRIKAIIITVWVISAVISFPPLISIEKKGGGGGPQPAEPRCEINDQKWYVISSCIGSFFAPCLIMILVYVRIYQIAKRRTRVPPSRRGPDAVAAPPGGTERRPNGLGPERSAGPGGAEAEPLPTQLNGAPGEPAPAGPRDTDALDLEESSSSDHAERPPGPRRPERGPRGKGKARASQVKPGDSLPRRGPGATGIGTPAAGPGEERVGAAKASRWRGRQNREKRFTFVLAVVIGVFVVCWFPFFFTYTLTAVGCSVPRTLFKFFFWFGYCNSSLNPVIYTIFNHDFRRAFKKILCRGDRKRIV

Acetylcholinesterase = Acetylcholinesterase (Homo sapiens, UniProt P22303); experiment: DRUGMATRIX: Acetylcholinesterase enzyme inhibition (substrate: acetylthiocholine); format: cell-based, HEK293; conditions: hek293; Not Active = under 50% inhibition at 10 µM
[3] = DRUGMATRIX: Interleukin IL-1 radioligand binding (ligand: [125I] interleukin 1beta); format: cell membranes, Membrane; conditions: nih3t3; Not Active = under 50% inhibition at 10 µM
Interstitial collagenase = molecular target: T2, Interstitial collagenase (Homo sapiens, UniProt P03956); experiment: biochemical; format: tissue-based, Rheumatoid synovial fibroblasts;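 note: MMP-1 enzyme inhibition assay using a peptide substrate; in other assays of this panel Not Active means under 50% inhibition at 10 µM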
T2 sequence (P03956 whole entry): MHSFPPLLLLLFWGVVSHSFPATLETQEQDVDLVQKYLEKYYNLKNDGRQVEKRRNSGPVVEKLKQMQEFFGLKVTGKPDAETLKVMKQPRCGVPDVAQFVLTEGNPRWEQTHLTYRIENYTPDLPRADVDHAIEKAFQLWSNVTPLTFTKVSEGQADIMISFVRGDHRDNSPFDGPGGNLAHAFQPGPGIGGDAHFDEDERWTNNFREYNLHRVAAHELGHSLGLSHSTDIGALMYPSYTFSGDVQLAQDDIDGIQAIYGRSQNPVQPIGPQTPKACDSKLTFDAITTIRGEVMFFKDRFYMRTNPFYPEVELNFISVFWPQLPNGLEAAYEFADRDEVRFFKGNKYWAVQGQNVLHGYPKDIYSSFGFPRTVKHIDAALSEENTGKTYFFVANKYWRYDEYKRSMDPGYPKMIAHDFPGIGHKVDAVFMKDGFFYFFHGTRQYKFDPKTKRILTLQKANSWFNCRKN

Sequence of Acetylcholinesterase (P22303 whole entry): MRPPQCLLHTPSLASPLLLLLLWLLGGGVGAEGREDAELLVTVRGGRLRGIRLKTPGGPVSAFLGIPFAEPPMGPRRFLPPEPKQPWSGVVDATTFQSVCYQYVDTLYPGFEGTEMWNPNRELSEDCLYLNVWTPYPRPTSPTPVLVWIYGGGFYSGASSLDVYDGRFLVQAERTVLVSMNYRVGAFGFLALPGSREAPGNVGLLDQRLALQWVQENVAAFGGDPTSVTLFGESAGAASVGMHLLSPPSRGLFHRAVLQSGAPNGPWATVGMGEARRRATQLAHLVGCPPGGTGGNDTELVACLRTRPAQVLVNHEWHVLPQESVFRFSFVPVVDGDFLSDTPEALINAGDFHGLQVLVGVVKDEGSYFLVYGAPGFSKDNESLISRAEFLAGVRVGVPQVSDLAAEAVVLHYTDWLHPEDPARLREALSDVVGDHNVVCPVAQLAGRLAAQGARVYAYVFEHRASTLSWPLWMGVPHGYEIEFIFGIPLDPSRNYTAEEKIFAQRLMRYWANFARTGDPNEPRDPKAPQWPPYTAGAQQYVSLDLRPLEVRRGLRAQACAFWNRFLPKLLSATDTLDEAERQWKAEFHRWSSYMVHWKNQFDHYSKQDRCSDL

Row | Molecule | IC50 [1] | IC50 ([2]; sf9) | IC50 (Acetylcholinesterase) | IC50 [3] | Ki [3] | IC50 (Interstitial collagenase) | Ki [1] | IC50 ([2]; sf9, read-out: IC50) [µM] | Ki ([2]; sf9) [µM] | Ki (Acetylcholinesterase) | Ki (Interstitial collagenase) | IC50 ([1]; read-out: IC50) [µM] | IC50 ([2]; read-out: IC50) [µM] | Ki [2] [µM]
1 | COP(=O)(OC)OC=C(Cl)Cl [DICHLORVOS] | Not Active | Not Active | Not Active | Not Active | Not Active | Not Active |  |  |  |  |  |  |  | 
2 | CADMIUM DICHLORIDE | Not Active |  | Not Active | Not Active | Not Active | Not Active | Not Active | 6.92 | 2.59 | Not Active | Not Active |  |  | 
3 | C[C@](O)(CS(=O)(=O)c1ccc(F)cc1)C(=O)Nc1ccc(C#N)c(C(F)(F)F)c1 [(R)-BICALUTAMIDE] | Not Active | Not Active | Not Active | Not Active | Not Active | Not Active |  |  |  |  |  |  |  | 
4 | Cc1nccn1CC1CCc2c(c3ccccc3n2C)C1=O (configuration not stated) [ONDANSETRON] | Not Active | Not Active | Not Active | Not Active | Not Active | Not Active |  |  |  |  |  |  |  | 
5 | CCOC(=O)[C@H](CCc1ccccc1)N[C@H]1CCc2ccccc2N(CC(=O)O)C1=O [BENAZEPRIL] | Not Active | Not Active | Not Active | Not Active | Not Active | Not Active |  |  |  |  |  |  |  | 
6 | CCCCOc1ccc(OCCCN2CCOCC2)cc1 [PRAMOXINE] | Not Active | Not Active | Not Active | Not Active | Not Active | Not Active |  |  |  |  |  |  |  | 
7 | COc1cccc2c1C(=O)c1c(O)c3c(c(O)c1C2=O)C[C@@](O)(C(=O)CO)C[C@@H]3O[C@H]1C[C@H](N)[C@H](O)[C@H](C)O1 [DOXORUBICIN] | Not Active | Not Active | Not Active | Not Active | Not Active | Not Active |  |  |  |  |  |  |  | 
8 | C[C@H]1C[C@H]2[C@@H]3CCC4=CC(=O)C=C[C@]4(C)[C@@]3(Cl)[C@@H](O)C[C@]2(C)[C@@]1(O)C(=O)CO [BECLOMETHASONE] | Not Active | Not Active | Not Active | Not Active | Not Active | Not Active |  |  |  |  |  |  |  | 
9 | CCN(CC)CCOC(=O)c1ccc(N)cc1 [PROCAINE] | Not Active | Not Active | Not Active | Not Active | Not Active | Not Active |  |  |  |  |  |  |  | 
10 | O=C(O)Cc1ccccc1Nc1c(Cl)cccc1Cl [DICLOFENAC] | Not Active | Not Active | Not Active | Not Active | Not Active | Not Active |  |  |  |  |  |  |  | 
11 | CC(C)[C@H]1CC[C@H](C(=O)N[C@H](Cc2ccccc2)C(=O)O)CC1 [NATEGLINIDE] | Not Active | Not Active | Not Active | Not Active | Not Active | Not Active |  |  |  |  |  |  |  | 
12 | Nc1c(CC(=O)O)cccc1C(=O)c1ccc(Br)cc1 [BROMFENAC] | Not Active | Not Active | Not Active | Not Active | Not Active | Not Active |  |  |  |  |  |  |  | 
13 | CC(=O)Nc1cccc(O)c1 [METACETAMOL] | Not Active | Not Active | Not Active | Not Active | Not Active | Not Active |  |  |  |  |  |  |  | 
14 | CCn1cc(C(=O)O)c(=O)c2cc(F)c(N3CCN(C)CC3)cc21 [PEFLOXACIN] | Not Active | Not Active | Not Active | Not Active | Not Active | Not Active |  |  |  |  |  |  |  | 
15 | COc1ccc2c(c1)c(CC(=O)O)c(C)n2C(=O)c1ccc(Cl)cc1 [INDOMETHACIN] |  | Not Active | Not Active | Not Active | Not Active | Not Active |  |  |  |  |  | 3.63 |  | 
16 | C[C@H]1O[C@@H](O[C@H]2[C@@H](O)C[C@H](O[C@H]3[C@@H](O)C[C@H](O[C@H]4CC[C@@]5(C)[C@H](CC[C@@H]6[C@@H]5CC[C@]5(C)[C@@H](C7=CC(=O)OC7)CC[C@]65O)C4)O[C@@H]3C)O[C@@H]2C)C[C@H](O)[C@@H]1O [DIGITOXIN] | Not Active | Not Active | Not Active | Not Active | Not Active | Not Active |  |  |  |  |  |  |  | 
17 | S=C=Nc1cccc2ccccc12 [1-NAPHTHYLISOTHIOCYANATE] | Not Active |  | Not Active | Not Active | Not Active | Not Active |  |  |  |  |  |  | 6.27 | 2.35

— ChEMBL document CHEMBL1909046, “DrugMatrix in vitro pharmacology data”
